Measured values: PMC12515225, “Targeting neuroblastoma with hydroxamic acid based HDAC1 and HDAC2 inhibitors: Insights from in vitro and in vivo studies” (Investigational New Drugs, 2025)

What was measured:
HDAC2 = HDAC2 (Homo sapiens, UniProt Q92769); experiment: fluorogenic HDAC activity assay with HDAC2 protein (BPS […]), Boc-Lys(Ac)-AMC substrate; format: biochemical
HDAC1 = HDAC1 (Homo sapiens, UniProt Q13547); experiment: fluorogenic HDAC activity assay with HDAC1 protein (BPS […]), Boc-Lys(Ac)-AMC substrate; format: biochemical
Sequence of HDAC1 (Q13547 whole entry): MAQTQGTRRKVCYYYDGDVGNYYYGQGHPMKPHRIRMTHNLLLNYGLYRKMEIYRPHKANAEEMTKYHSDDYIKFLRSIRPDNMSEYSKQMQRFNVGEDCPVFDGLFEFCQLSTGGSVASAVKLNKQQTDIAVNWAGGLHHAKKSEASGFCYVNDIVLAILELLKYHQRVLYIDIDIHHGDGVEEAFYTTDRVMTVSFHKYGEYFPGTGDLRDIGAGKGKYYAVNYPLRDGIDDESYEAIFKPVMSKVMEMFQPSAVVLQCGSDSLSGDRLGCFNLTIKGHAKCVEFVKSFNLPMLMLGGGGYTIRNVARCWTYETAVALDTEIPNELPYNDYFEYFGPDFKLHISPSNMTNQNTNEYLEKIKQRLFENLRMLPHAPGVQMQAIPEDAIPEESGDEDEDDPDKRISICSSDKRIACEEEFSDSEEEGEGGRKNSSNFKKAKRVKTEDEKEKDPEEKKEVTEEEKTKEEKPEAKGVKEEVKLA

Sequence of HDAC2 (Q92769 whole entry): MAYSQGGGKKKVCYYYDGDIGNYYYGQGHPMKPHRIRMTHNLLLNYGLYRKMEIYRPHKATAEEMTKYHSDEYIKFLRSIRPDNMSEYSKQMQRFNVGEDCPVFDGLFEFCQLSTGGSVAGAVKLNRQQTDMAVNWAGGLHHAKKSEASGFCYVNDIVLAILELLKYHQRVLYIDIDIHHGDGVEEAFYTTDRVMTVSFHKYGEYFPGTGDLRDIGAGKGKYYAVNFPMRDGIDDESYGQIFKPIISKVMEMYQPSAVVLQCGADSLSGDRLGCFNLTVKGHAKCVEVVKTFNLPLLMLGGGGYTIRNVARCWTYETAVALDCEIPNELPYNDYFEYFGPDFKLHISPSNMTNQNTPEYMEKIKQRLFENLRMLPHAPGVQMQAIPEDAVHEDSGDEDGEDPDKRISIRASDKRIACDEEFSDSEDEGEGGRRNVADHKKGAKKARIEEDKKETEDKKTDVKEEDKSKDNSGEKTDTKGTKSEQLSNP

`O=C(NO)c1cccc(-c2ccccn2)n1` [3A, N-hydroxy[2,2'-bipyridine]-6-carboxamide] was tested. Which IC50 (HDAC2) did it give?
The IC50 was 890 nM.

With `O=C(CCCCCCC(=O)Nc1cccc(-c2ccccn2)n1)NO` [3B, N^1-([2,2'-bipyridin]-6-yl)-N^8-hydroxyoctanediamide] as the compound, how does the IC50 (HDAC2) read?
Its IC50 is 1940 nM.

And the IC50 (HDAC1)?
The IC50 was 440 nM.
